Tests used:
[1] = test system: TNFα release from THP-1 cells stimulated with lipopolysaccharide (LPS); experiment: Inhibition of TNFα release from THP-1 cells stimulated with lipopolysaccharide (LPS); format: cell-based; set-up: key to TNF EC50: A: ≤2,000; B: >2,000; C: Inconclusive (e.g., no data or no activity observed); details: for EC50: Homo sapiens, read-out: TNF EC50
Procedure: Compounds are screened for the ability to inhibit TNFα release from THP-1 cells stimulated with lipopolysaccharide (LPS) in vitro. The ability of compounds to inhibit TNFα release in this in vitro assay is correlated with the inhibition of p38 activity and TNFα, and is therefore an indicator of potential in vivo therapeutic activity (Lee J. C. et al. 1993 Ann. N.Y. Acad. Sci. 696:149-170; and 1994 Nature 372:739-746).
THP-I cells from ATCC (TIB202) are maintained at 37° C., 5% CO2 in RPMI 1640 media (MediaTech, Herndon, Va.) containing 4.5 g/L glucose, supplemented with 10% fetal bovine serum, 1% penicillin/streptomycin and 50 μM β-mercaptoethanol.
Test compounds are initially dissolved in RPMI media with 1% DMSO (v/v). Compounds are then serially diluted in RPMI media for all subsequent dilutions. The assay is performed under sterile conditions. THP-1 cells at a culture density of 6-8×10^5 cells/ml are collected and resuspended in the RPMI media at 10^6 cells/ml. 100 μl of resuspended cells are added to each well, which contain 100 μl of a test compound. Test compounds are prepared at twice the final concentration. Final DMSO concentration is no more than 0.5% (v/v). Cells are preincubated with compound for 60 minutes at 37° C., 5% CO2 prior to stimulation with lipopolysaccharide (LPS) (Sigma L-2880, 4 mg/ml stock in PBS). The final LPS concentration in each well is […] for TNFα and IL-1β release, respectively. Unstimulated control cell suspensions receive PBS vehicle only. Cell mixtures are incubated for 18 or 48 hours for TNFα and IL-1β release, respectively. 150 μl of supernatants are taken and transferred to a fresh plate and stored at −20° C. until farther analysis. TNFα and IL-1β levels are measured using ELISA kits. A Luminescence is used as the plate reader. Analysis is performed by non-linear regression to generate a dose response curve.

THP-1 cells = experiment: Compound toxicity testing in a cell based assay (LDH release, ATP and/or MTT assay); details: given as concentration
Procedure: The release of LDH as result of a disrupted cell membrane is applied as a measure of cell toxicity. […] THP-1 cells are used for determination of cell toxicity for consistency with the induced TNFα expression in the previous experiment. […] The compounds are added at different concentrations in triplicate. The appropriate solvent control is used in each assay. After compound addition the cells are cultured 18 hours under regular tissue culture conditions. After this incubation period, the positive control is initiated by adding Triton-X-100 (2% v/v) to untreated cells and incubated for an additional 10 minutes for complete cell lysis. Subsequently the cells are sedimented by centrifugation and a fraction of the supernatant removed and analyzed for LDH enzyme activity according to the manufacturer's instructions. The data is typically reported as % cell toxicity normalized to the Triton-X-100 lysed cells as 100% cell toxicity.
Toxicity data are also obtained using a commercially available ATP assay (Molecular Probes' ATP Determination Kit A22066, available from Invitrogen) and/or using a MTT assay. Both the ATP and the MTT assays measure metabolic competence of the cell. The MTT assay measures the ability of the cell to reduce a marker substrate, which is related to metabolic competence (i.e. viability). The ATP assay measures the cellular ATP concentration in the presence and absence of compound. Toxic compounds lead to reduced metabolic activity which leads to a reduction in ATP concentration.

[2] = Pharmacokinetic properties in dual canulated Sprague Dawley rats; format: in vivo; set-up: Clobs: unit not given here; details: rat; for AUC(0-t) / MRT inf / half-life: male, Sprague Dawley, plasma
Procedure: The pharmacokinetic (PK) properties of pirfenidone, pirfenidone analogs and derivatives were assessed in dual canulated (right jugular/left carotid) Sprague Dawley rats (Charles River Laboratories, Inc., Wilmington, Mass.). Male rats weighing approximately 275-300 g were administered an intravenous (5 mg/Kg) or oral (50 mg/Kg via gavage) dose of compound in an appropriate formulation. Plasma samples were collected via intra-arterial canula at desired times in the 24 hours after dosing using EDTA as an anticoagulant. Three animals were used for each compound. All experiments were conducted by trained personnel in accordance with guidelines of the appropriate Institutional Animal Care and Use Committees (IACUC). Compound concentrations were assessed by LC-MS using a MDS SCIEX API 3000 mass spectrometer (Applied Biosystems, Foster City, Calif.) coupled to a Shimadzu VP HPLC (Shimadzu Corp., Kyoto, Japan) outfitted with a Duragel G C18 guard cartridge (Peeke Scientific, Redwood City, Calif.). Calibration samples were prepared by mixing known amounts of pirfenidone, or a pirfenidone analog or derivative, with rat plasma. A standard curve was created by serial dilution of the calibration sample in the same matrix. Both standard and analytical samples were prepared for injection to the HPLC by mixing an aliquot of plasma sample with 3 volumes of ice cold acetonitrile containing internal standard. Samples were then centrifuged. An aliquot of the resulting supernatant was then mixed with five volumes of 0.2% formic acid in water, injected to the HPLC, and resolved in a methanol gradient (containing 0.18-0.2% formic acid). The integrated analyte signal was corrected for that of the internal standard and compared to the appropriate standard curve in order to define the analyte concentration. The pharmacokinetic parameters shown in Table 4 were derived using the WinNonlin Software package (Pharsight Corp, Mountain View, Calif.).

HFL-1 Cells = experiment: Effect of compounds on TGF-β-induced collagen production in HFL-1 cells (Sircol collagen assay); format: cell-based; details: Homo sapiens, HFL1, 72 h, compound 1 mM, TGF-β1 10 ng/mL, three days, read-out: % Inhibition of TGF-β Stimulated Collagen Synthesis
Procedure: HFL-1 Cells (ATCC, Rockville, Md.) were grown under regular tissue culture conditions in complete media containing 10% fetal bovine serum (FBS; Mediatech, Inc., Herndon, Va.). Cells in early passage were plated in 6 well plates. When the cells reached confluence, the media was removed, cells washed with PBS, and the cells were kept overnight in complete media containing 0.1% FBS. The media was then replaced with fresh media plus 0.1% FCS, 10 μM L-Proline (EMD Chemicals, Gibbstown, N.J.), 20 μg/mL ascorbic acid (EMD Chemicals, Gibbstown, N.J.). Compounds were added to triplicate wells to a final concentration of 1 mM from 100× stock solutions in DMSO. One hour after the addition of compound, the cells were treated with TGF-β1 (Sigma-Aldrich, St. Louis, Mo.) to a final concentration of 10 ng/mL (25 ng total). Three days after addition of TGF-β, the media was removed, cells were washed with PBS and then lysed. The total collagen content of lysed cells was assessed with a dye-based collagen assay (Sircol Collagen Assay, Newtownabbey, Northern Ireland) and a μQuant plate-based spectrophotometer (BioTek Insturments, Inc., Winooski, Vt.) with appropriate standard curves. The dynamic range of the assay is defined by cells that were mock treated (1% DMSO without compound) in the presence and absence of TGF-β.

Row | EC50 [1] [µM] | TNF EC50 [1] | Compound | other results
1 | > 2000 |  | O=c1ccc(CO)cn1-c1ccccc1 [Compound 1] | 
2 |  | C | O=C(O)c1ccc(=O)n(-c2ccccc2)c1 [Compound 2] | 
3 | ≤ 2000 |  | Cc1cc(O)c(=O)n(-c2ccccc2)c1 [Compound 4] | Toxicity (THP-1 cells): ≥1 mM
4 | ≤ 2000 |  | Cc1ccc(=O)n(-c2ccc(O)cc2)c1 [Compound 5] | Toxicity (THP-1 cells): ≥1 mM
5 | ≤ 2000 |  | COCc1ccc(=O)n(-c2ccccc2)c1 [Compound 6] | Toxicity (THP-1 cells): ≥1 mM
6 | > 2000 |  | O=c1ccccn1-c1ccccc1 [Compound 7] | 
7 | > 2000 |  | O=c1ccc(C(F)(F)F)cn1-c1ccccc1 [Compound 8] | AUC(0-t) ([2]; IV, 5 mg/kg): 30200 ng·h/mL; MRT inf ([2]; IV, 5 mg/kg): 20.3 h; half-life ([2]; IV, 5 mg/kg): 13.9 h; AUC(0-t) ([2]; Oral, 50 mg/kg): 122000 ng·h/mL; Clobs ([2]; IV, 5 mg/kg): 0.117; E ([2]; Oral, 50 mg/kg): 40.5%; inhibition at 1000 µM (HFL-1 Cells): 48%
8 |  | C | O=c1ccccn1-c1ccc(O)cc1 [Compound 9] | 
9 | ≤ 2000 |  | O=c1ccc(C(F)(F)F)cn1-c1ccc(O)cc1 [Compound 10, 1-(4-hydroxyphenyl)-5-(trifloromethyl)-2-pyridone] | 
10 | > 2000 |  | O=c1ccccn1-c1ccc(F)cc1 [Compound 11] | 
11 |  | C | O=c1ccc(C(F)(F)F)cn1-c1ccc(F)cc1 [Compound 12] | 
12 | ≤ 2000 |  | Cc1ccc(=O)n(-c2ccccc2)c1 [Compound 13, 5-methyl-1-phenyl-2-(1H)-pyridone, reference compound] | Toxicity (THP-1 cells): ≥1 mM
13 | > 2000 |  | Cc1ccc(=O)n(-c2ccc(F)cc2)c1 [Compound 14] | inhibition at 1000 µM (HFL-1 Cells): 23%
14 |  | C | COc1ccc(-n2cc(C(F)(F)F)ccc2=O)cc1 [Compound 15] | inhibition at 1000 µM (HFL-1 Cells): 49%
15 |  | C | CC(=O)c1ccc(=O)n(-c2ccccc2)c1 [Compound 16, 1-phenyl-5-acetyl-2-pyridone] | 
16 |  | C | O=c1ccc(-c2ccccc2)cn1-c1ccccc1 [Compound 17] | 
17 |  | C | Cc1ccc(=S)n(-c2ccccc2)c1 [Compound 18, 1-phenyl-5-methyl-2-pyridinethione] | 
18 |  |  | O=c1ccc(C(F)F)cn1-c1ccccc1 [Compound 19] | AUC(0-t) ([2]; IV, 5 mg/kg): 35000 ng·h/mL; MRT inf ([2]; IV, 5 mg/kg): 6.26 h; half-life ([2]; IV, 5 mg/kg): 2.96 h; AUC(0-t) ([2]; Oral, 50 mg/kg): 192000 ng·h/mL; Clobs ([2]; IV, 5 mg/kg): 0.142; E ([2]; Oral, 50 mg/kg): 54.8%
19 |  | C | COC(=O)c1ccc(=O)n(-c2ccccc2)c1 [Compound 24] | 
20 | > 2000 |  | Cc1ccc(=O)n(-c2cc[n+](C)cc2)c1 [Compound 25] | 
21 | ≤ 2000 |  | O=c1ccc(Br)cn1-c1ccccc1 [Compound 26] | AUC(0-t) ([2]; IV, 5 mg/kg): 10300 ng·h/mL; MRT inf ([2]; IV, 5 mg/kg): 2.4 h; half-life ([2]; IV, 5 mg/kg): 1.62 h; AUC(0-t) ([2]; Oral, 50 mg/kg): 65800 ng·h/mL; Clobs ([2]; IV, 5 mg/kg): 0.691; E ([2]; Oral, 50 mg/kg): 63.9%; inhibition at 1000 µM (HFL-1 Cells): 58%
22 | ≤ 2000 |  | COc1ccc(-n2cc(Br)ccc2=O)cc1 [Compound 27] | 
23 |  | C | O=c1ccc(CF)cn1-c1ccc(O)cc1 [Compound 28] | 
24 |  | C | O=c1ccc(C(F)F)cn1-c1ccc(O)cc1 [Compound 29] | 
25 | ≤ 2000 |  | O=c1ccc(Br)cn1-c1ccc(O)cc1 [Compound 30] | inhibition at 1000 µM (HFL-1 Cells): 69%
26 | ≤ 2000 |  | COc1ccc(-n2cc(CF)ccc2=O)cc1 [Compound 31] | 
27 | ≤ 2000 |  | COc1ccc(-n2cc(C(F)F)ccc2=O)cc1 [Compound 32] | 
28 |  | C | O=c1ccc2cc(Br)ccc2n1-c1ccccc1 [Compound 33] | 
